system: Elongator complex protein 1 (ELPI, also referred to as IKBKAP); assay: IKBKAP-HTRF assay (IKBKAP protein in lysates of FD patient-derived fibroblasts); format: cell-based, human; details: FD patient-derived fibroblasts GM04589, 48 hours, 7-point concentration curve
Experimental: The assay is used for the quantitative determination of Elongator complex protein 1 (ELPI, also referred to as IKBKAP) concentration in cell lysates using the HTRF® (Homogeneous Time-Resolved Fluorescence) technology. IKBKAP is detected in a sandwich HTRF assay by use of an anti-IKAP antibody labeled with a donor and an anti-IKAP antibody labeled with an acceptor.
Cells were thawed and incubated in DMEM-10% FBS for 72 hours. Cells were trypsinized, counted, and re-suspended to a concentration of 50,000 cells/ml in DMEM-10% FBS. A 199 μL aliquot of the cell suspensions were plated at 10,000 cells per well in a 96 well microtiter plate and incubated for 3 to 5 hours. […] Test compounds were serially diluted 3.16-fold in 100% DMSO to generate a 7-point concentration curve. A 1 μL aliquot of 200× compound solution was transferred to cell-containing wells, and cells were incubated for 48 hours in a cell culture incubator (37° C., 5% CO2, 100% relative humidity). Triplicate samples were set up for each compound concentration. After 48 hours, the supernatant was removed from the cells and 50 μL of the 1×LB4 lysis buffer, containing protease inhibitors, was added to the cells and incubated with shaking at room temperature for 1 hour. A 36 μL aliquot of this lysate was subsequently transferred to the 384-well plate containing 4 μL of the antibody solution (1:50 dilution of anti IKAP d2 and anti-IKAP K(9+8) in detection buffer). The 384-well plate was then centrifuged for 1 minute to bring the solutions to the bottom of the plate and incubated overnight at 4° C. Fluorescence for each well of the plate at 665 nm and 620 nm was measured was on the EnVision plate reader (Perkin Elmer). The ΔF for each sample is calculated by:
[formula] wherein Signal is the normalized fluorescence for each sample well and Blank is the average normalized average fluorescence for the Blank control wells.
The maximum fold increase (MFI) in IKBKAP protein abundance for compounds of Formula (I) or a form thereof relative to the vehicle control are provided in Table 1. MFI was calculated by dividing the ΔF value for each sample well by the sample ΔF for the vehicle control wells.
The EC2x for IKBKAP protein expression obtained from the 7-point concentration curve generated for each test compound according to the protocol in Biological Example 1 are also provided in Table 1. The term “EC2x for IKBKAP protein expression” is defined as the concentration of test compound that is effective in producing two times the amount of IKBKAP protein in a FD patient cell compared to the amount produced from the DMSO vehicle control.

| SMILES | EC2x for IKBKAP protein expression (concentration producing two times the amount of IKBKAP protein vs DMSO vehicle control) | MFI (maximum fold increase in IKBKAP protein abundance relative to the vehicle control) |
| --- | --- | --- |
| C[C@H](N)Cc1[nH]c2nc(Cl)nc(NCc3nccs3)c2c1F.Cl [Cpd 36, 6-[(2S)-2-aminopropyl]-2-chloro-5-fluoro-N-[(1,3-thiazol-2-yl)methyl]-7H-pyrrolo[2,3-d]pyrimidin-4-amine hydrochloride] | **** (between >0.005 μM and ≤0.02 μM is indicated by four stars (****)) | ***** (>4.9 is indicated by five stars (*****)) |
| COC[C@H](N)Cc1c(F)c2c(NCc3ccco3)nc(Cl)nc2n1C.Cl [Cpd 37, 6-[(2R)-2-amino-3-methoxypropyl]-2-chloro-5-fluoro-N-[(furan-2-yl)methyl]-7-methyl-7H-pyrrolo[2,3-d]pyrimidin-4-amine hydrochloride] | *** (between >0.02 μM and ≤0.5 μM is indicated by three stars (***)) | ***** (>4.9 is indicated by five stars (*****)) |
| C[C@H](N)Cc1c(F)c2c(NCc3nccs3)nc(Cl)nc2n1C.Cl [Cpd 38, 6-[(2S)-2-aminopropyl]-2-chloro-5-fluoro-7-methyl-N-[(1,3-thiazol-2-yl)methyl]-7H-pyrrolo[2,3-d]pyrimidin-4-amine hydrochloride] | *** (between >0.02 μM and ≤0.5 μM is indicated by three stars (***)) | ***** (>4.9 is indicated by five stars (*****)) |
| Cl.Cn1c(C[C@@H](N)CO)c(F)c2c(NCc3ccco3)nc(Cl)nc21 [Cpd 39, (2R)-2-amino-3-(2-chloro-5-fluoro-4-{[(furan-2-yl)methyl]amino}-7-methyl-7H-pyrrolo[2,3-d]pyrimidin-6-yl)propan-1-ol hydrochloride] | **** (between >0.005 μM and ≤0.02 μM is indicated by four stars (****)) | ***** (>4.9 is indicated by five stars (*****)) |
| C[C@H](N)Cc1[nH]c2nc(Cl)nc(NCc3cccs3)c2c1F.Cl [Cpd 40, 6-[(2S)-2-aminopropyl]-2-chloro-5-fluoro-N-[(thiophen-2-yl)methyl]-7H-pyrrolo[2,3-d]pyrimidin-4-amine hydrochloride] | **** (between >0.005 μM and ≤0.02 μM is indicated by four stars (****)) | ***** (>4.9 is indicated by five stars (*****)) |
| C[C@H](N)Cc1c(F)c2c(NCc3ccncc3F)nc(Cl)nc2n1C.Cl.Cl [Cpd 41, 6-[(2S)-2-aminopropyl]-2-chloro-5-fluoro-N-[(3-fluoropyridin-4-yl)methyl]-7-methyl-7H-pyrrolo[2,3-d]pyrimidin-4-amine dihydrochloride] | *** (between >0.02 μM and ≤0.5 μM is indicated by three stars (***)) | ***** (>4.9 is indicated by five stars (*****)) |
| CCn1c(C[C@H](C)N)c(F)c2c(NCc3ccco3)nc(Cl)nc21.Cl [Cpd 42, 6-[(2S)-2-aminopropyl]-2-chloro-7-ethyl-5-fluoro-N-[(furan-2-yl)methyl]-7H-pyrrolo[2,3-d]pyrimidin-4-amine hydrochloride] | *** (between >0.02 μM and ≤0.5 μM is indicated by three stars (***)) | ** (between >1.9 and ≤2.9 is indicated by two stars (**)) |
| C[C@H](N)Cc1c(F)c2c(NCc3ccncc3)nc(Cl)nc2n1C.Cl.Cl [Cpd 43, 6-[(2S)-2-aminopropyl]-2-chloro-5-fluoro-7-methyl-N-[(pyridin-4-yl)methyl]-7H-pyrrolo[2,3-d]pyrimidin-4-amine dihydrochloride] | *** (between >0.02 μM and ≤0.5 μM is indicated by three stars (***)) | ***** (>4.9 is indicated by five stars (*****)) |

From patent US12398140B2, “Substituted pyrrolo [2,3-d]pyrimidines for treating familial dysautonomia” (PTC THERAPEUTICS, INC., priority 2019, dated 2025)
